Values of other authors in US10098846B2, “Drug-containing particulate composition with cationic agent, associated medical devices, and methods for treatment” (Surmodics, Inc., priority 2016, dated 2018).

CO[C@H]1C[C@@H]2CC[C@@H](C)[C@@](O)(O2)C(=O)C(=O)N2CCCC[C@H]2C(=O)O[C@H]([C@H](C)C[C@@H]2CC[C@@H](O)[C@H](OC)C2)CC(=O)[C@H](C)/C=C(\C)[C@@H](O)[C@@H](OC)C(=O)[C@H](C)C[C@H](C)/C=C/C=C/C=C/1C [Rapamycin, rapamycin]
solubility in N,N-dimethylformamide (N,N-dimethylformamide): soluble
solubility in acetone (acetone): soluble
solubility in ether (ether): soluble
solubility in water (water): insoluble
